According to US20250064777A1, “PHARMACEUTICAL COMPOSITION FOR TREATMENT OF CASTRATION-RESISTANT PROSTATE CANCER COMPRISING BRUCEANTIN AND NANOPARTICLES” (SAMSUNG LIFE PUBLIC WELFARE FOUNDATION, priority 2021, published 2025):
Like-named read-outs stand apart in the source and are kept apart here.

Key:
[1] = Solubility of nano-bruceantin in aqueous solution (visual examination, UV-Vis spectroscopy); assay type: physicochemical
[2] = tested on: nude mice; test: Short-term toxicity of bruceantin and nano-bruceantin; assay type: in vivo; details: 5 mg/kg daily for 7 days, FIG. 3
Description: (§1) As Experimental Animals, 6-Week-Old Male Nude Mice (Orient Bio, Korea) were used.
Mice were divided into a nanoparticle-administered group (nano-Veh), a phosphate buffer saline-administered group (PBS), a nano-bruceantin-administered group (nano-BCT), and a bruceantin-administered group (free-BCT). The nano-BCT group was orally administered nano-bruceantin at 5 mg/kg daily for 7 days, and the free-BCT group was orally administered bruceantin at 5 mg/kg daily for 7 days.

[3] = tested on: nude mice; test: Long-term toxicity of bruceantin and nano-bruceantin; assay type: in vivo; details: 2 mg/kg every two days for 17 days, FIG. 4
Description: as §1
The nano-BCT group was orally administered nano-bruceantin at 2 mg/kg every two days for 17 days, and the free-BCT group was orally administered bruceantin at 2 mg/kg every two days for 17 days.

[4] = tested on: 22RV1 cells; test: Cell growth inhibition assay; assay type: cell-based; details: concentration of 10 nM or more, FIG. 5
Description: (§2) Castration-resistant prostate cancer cell line 22RV1 cells were cultured with RPMI-1640 (Welgene) medium containing 10% fetal bovine serum (FBS) (Welgene) and 1% penicillin/streptomycin.
(§3) Castration-resistant prostate cancer cell line 22RV1 cells were treated with various concentrations of each of bruceantin (BCT), nano-bruceantin 1 (nano-BCT #1), and nano-bruceantin 2 (nano-BCT #2) and subjected to cell growth inhibition assay and colony formation assay. Reporter gene assay was performed by transfecting 22RV1 cells with an MMTV-LUC reporter, which can measure the transcriptional activities of AR and AR-V7, and treating the cells with various concentrations of each of BCT, nano-BCT #1, and nano-BCT #2 depending on the presence or absence of the androgen dihydrotestosterone (DHT) (DHT+, AR transcriptional activity measurement condition; DHT−, AR-V7 transcriptional activity measurement condition). Immunoblotting was performed by treating 22RV1 cells with various concentrations of each of BCT and nano-BCT, extracting protein from the cells, electrophoresise protein on 4 to 12% SDS-PAGE gel, and transferring the electrophoresed protein to a PVDF membrane, followed by incubation with antibody.

[5] = tested on: 22RV1 cells; test: Colony formation assay; assay type: cell-based; details: various concentrations, FIG. 6
Description: as §2, §3

[6] = tested on: AR; test: MMTV-LUC reporter gene assay, DHT+ (AR transcriptional activity); assay type: cell-based; details: 22RV1 cells, FIG. 7
Description: as §2, §3

[7] = tested on: AR-V7; test: MMTV-LUC reporter gene assay, DHT− (AR-V7 transcriptional activity); assay type: cell-based; details: 22RV1 cells, FIG. 7
Description: as §2, §3

[8] = tested on: AR; test: Immunoblotting for AR in 22RV1 cells; assay type: cell-based; details: various concentrations, FIG. 8
Description: as §2, §3

[9] = tested on: AR-V7; test: Immunoblotting for AR-V7 in 22RV1 cells; assay type: cell-based; details: various concentrations, FIG. 8
Description: as §2, §3

[10] = tested on: CWR22RV1; test: CWR22RV1 xenograft mice: tumor volume and bioluminescence; assay type: in vivo; details: oral, 2 mg/kg every two days for 19 days
Description: Castration-resistant prostate cancer cell line CWR22RV1 was purchased from ATCC (USA), and xenograft mice were constructed by subcutaneously injecting CWR22RV1 into nude mice.
The xenograft mice were divided into a nanoparticle-treated group (nano-Veh), a control group (free-Veh), a nano-bruceantin-treated group (nano-BCT), and a bruceantin-treated group (free-BCT). The nano-BCT group and the free-BCT group were orally administered nano-bruceantin and bruceantin, respectively, at 2 mg/kg every two days for 19 days. Thereafter, tumor volume and bioluminescence were measured for each treated group.

[11] = tested on: AR/AR-V7; details: castration-resistant prostate cancer cell line 22RV1 cells; KR 10-2020-0139625; cited from earlier work
[12] = tested on: AR/AR-V7; details: androgen-dependent LNCaP cells; KR 10-2020-0139625; cited from earlier work

**Q.** Which results are given for `COC(=O)[C@@]12OC[C@]34[C@H]([C@@H](O)[C@@H]1O)[C@@]1(C)CC(=O)C(O)=C(C)[C@@H]1C[C@H]3OC(=O)[C@H](OC(=O)/C=C(\C)C(C)C)[C@@H]24` [bruceantin]?
**A.** solubility [1]: < 100 µg/mL; side effects upon short-term oral administration [2]: accompanied by acute side effects such as exophthalmos, sudden death, and weight loss; side effects upon long-term oral administration [3]: accompanied by side effects such as exophthalmos, sudden death, and weight loss; cell growth inhibitory effect, compared between groups [4]: similar; colony formation, compared between groups [5]: no significant difference; AR transcriptional activity (reporter gene), compared between groups [6]: no significant difference; AR-V7 transcriptional activity (reporter gene), compared between groups [7]: no significant difference; AR protein (immunoblotting) [8]: decreased; AR-V7 protein (immunoblotting) [9]: decreased; tumor volume ([10]; FIG. 9): decrease in tumor volume was from day 13; bioluminescence ([10]; FIG. 10): decrease in bioluminescence; transcriptional activity of AR/AR-V7 [11]: simultaneously and strongly inhibit; transcriptional activity of AR/AR-V7 [12]: simultaneously and strongly inhibit
